Data on 7 compounds can be found in patent US8987217B2, “Modified saponins for the treatment of fungal infections” (The General Hospital Corporation, priority 2010, dated 2015).

Converted amounts (≈) assume the structure as drawn.

The subject of test [1] is C. albicans strain DAY185. The experiment in a line: in vitro antifungal activity (MIC) in the co-inoculation assay, turbidity read visually. Type of test: cell-based. As to conditions: for MIC in vitro: co-inoculation assay, two-fold serial dilutions, C. albicans DAY185; for in vitro growth of C. albicans: screen / dose response. As to the method: (§1) The procedure for the co-inoculation antifungal compound screen were conducted as previously described (Okoli et al., PLoS ONE, 4:e7025 (2009); Tampakakis et al., Nat Protocols, 3:1925-1931 (2008)), using the C. albicans strain DAY185 (Davis et al., Infect Immun, 68:5953-5959 (2000)) and the C. elegans glp-4;sek-1 double mutant.
The determination of the lowest concentration of the selected compounds showing in vitro antifungal activity was accomplished by following the steps detailed in the co-inoculation assay, using two-fold serial dilutions of the test compounds.

In the next test the test system is C. albicans. The experiment in a line: C. elegans-C. albicans co-inoculation assay, nematode survival. Type of test: in vivo. As to conditions: for maximum nematode survival: C. albicans-infected C. elegans; for EC50 in vivo: dose that resulted in 50% survival of C. albicans-infected nematodes. As to the method:
as §1
This assay allows simultaneous assessment of a compound's potential toxicity and the ability to promote the survival of the nematode in the presence of C. albicans, including modes of action not traditionally considered in antifungal assays such as impeding a fungal virulence factor or promoting host immune response. We performed a screen of 2,560 natural products representing a fraction of the Analyiticon Discovery compound collection (ac-discovery.com) housed at the Broad Institute of Harvard and MIT (Cambridge, Mass.). […] These natural products identified in the primary screen were retested and confirmed (FIG. 1; Table 1). […] Moreover, although the antifungal effects of some of these saponins have been reported (Sata et al., Biosci Biotechnol Biochem, 62:1904-1911 (1998); Ohtani et al., Phytochem, 33:83-86 (1993)), their efficacy against Candida spp. has not been studied.
After confirmation of these hits, dose response experiments were conducted to determine the concentration that provided maximum nematode survival. The compounds conferred a range of nematode survival from 27% (compound A6) to 93% (compounds A2, A7, A24, and A25), however, with the exception of A6, all compounds conferred a nematode survival over 65% (FIG. 1).

For a further test, the system named is C. albicans strains. Description: MIC by standard CLSI microdilution protocol M27-A. As to conditions: Candida albicans. Type of test: cell-based. Here is the method: Using the standard Clinical and Laboratory Standards Institute (CLSI) procedure, the in vitro MIC of these two compounds was determined on the following C. albicans strains: DAY185 (the standard strain used throughout the screen), two fluconazole-resistant strains of C. albicans, and an echinocandin-resistant strain of C. albicans (Table 2).
The minimal inhibitory concentration (MIC) was determined for strains DAY185, 98-145, 95-120 (White et al., Antimicrob Agents Chemother, 46:1704-1713 (2002)), and A15-10 (Garcia-Effron et al., Antimicrob Agents Chemother, 53:112-122 (2009)) spectrophotometrically using RPMI 1640 media (Mediatech, Inc.) following the standard CLSI microdilution protocol M27-A (National Committee for Clinical Laboratory Standards, Reference method for broth dilution susceptibility testing of yeasts. Tentative standard M27-A, Villanova, Pa. (1995)). Biofilm assays using identified compounds were conducted as previously described (Richard et al., Eukaryot Cell, 4:1493-1502 (2005)). The biofilm dry mass was determined by drying the silicone squares in a chemical hood, and weighing the resulting biofilm mass subtracting the previously weighed mass of the silicone square. Biofilm pictures were captured using a confocal laser microscope (TCS NT, Leica Microsystems). Cells were grown at 30° C., exposed to PS for 30 min, and then washed with PBS.
Background: Dilution methods test growth across graded concentrations, often in twofold steps.

As to `C[C@@H]1O[C@@H](O[C@H]2[C@H](O[C@H]3[C@H](O[C@H]4[C@H](O)[C@@H](O[C@@H]5O[C@H](CO)[C@@H](O)[C@H](O)[C@H]5O)[C@H](O[C@H]5CC[C@@]6(C)C(CC[C@]7(C)C6CC[C@]68OCC9(CCC(C)(C)CC96)[C@H](O)C[C@]87C)C5(C)C)O[C@@H]4C(=O)O)O[C@H](CO)[C@H](O)[C@@H]3O)O[C@@H](C)[C@H](O)[C@H]2O)[C@H](O)[C@H](O)[C@H]1O` (some centres unmarked) [A2, Sakurasosaponin], in test [1], the MIC in vitro was 27.5 µg/mL (≈ 22 µM) and the “in vitro growth of C. albicans” value is recorded as “completely inhibited”. The compound also had a maximum nematode survival in the test on C. albicans (dose response) of 93%. Further, in the test on C. albicans, the EC50 in vivo is 55.1 µg/mL (≈ 44 µM).

Compound `CC1(C)CC[C@]2(C(=O)O)CC[C@]3(C)C(=CCC4[C@@]5(C)CC[C@H](OC6O[C@H](CO)[C@@H](O)[C@H](O[C@@H]7O[C@H](CO)[C@@H](O)[C@H](O)[C@H]7O)[C@H]6O)C(C)(C)C5CC[C@]43C)[C@@H]2C1` (some centres unmarked) [A6, Arvensoside B] returned a maximum nematode survival in the test on C. albicans (dose response) of 27%.

Compound `CC1CC[C@@]2(OC1)O[C@H]1CC3C4C[C@@H](O)C5C[C@@H](O[C@@H]6O[C@H](CO)[C@H](O[C@@H]7O[C@H](CO)[C@@H](O)[C@H](O[C@@H]8OC[C@@H](O)[C@H](O)[C@H]8O)[C@H]7O[C@@H]7O[C@H](CO)[C@@H](O)[C@H](O)[C@H]7O)[C@H](O)[C@H]6O)CC[C@]5(C)C4CC[C@]3(C)[C@H]1[C@@H]2C` (some centres unmarked) [A8] had an MIC in vitro in test [1] of 5.8 µg/mL (≈ 5.52 µM). Moreover, the EC50 in vivo in the test on C. albicans was 23.1 µg/mL (≈ 22 µM).

`CC1CC[C@@]2(OC1)O[C@H]1CC3C4CC=C5C[C@@H](O[C@@H]6O[C@H](CO)[C@@H](O[C@@H]7O[C@@H](C)[C@H](O)[C@@H](O)[C@H]7O)[C@H](O)[C@H]6O[C@@H]6O[C@@H](C)[C@H](O)[C@@H](O)[C@H]6O)CC[C@]5(C)C4CC[C@]3(C)[C@H]1[C@@H]2C` (some centres unmarked) [A11] had an MIC in vitro in test [1] of 38.9 µg/mL (≈ 44.8 µM). In addition, in the test with C. albicans, the EC50 in vivo was 38.9 µg/mL (≈ 44.8 µM).

As for `CC1CC[C@@]2(OC1)O[C@H]1CC3C4CC=C5C[C@@H](O[C@@H]6O[C@H](CO)[C@@H](O[C@@H]7O[C@@H](C)[C@H](O)[C@@H](O)[C@H]7O[C@@H]7O[C@@H](C)[C@H](O)[C@@H](O)[C@H]7O)[C@H](O)[C@H]6O)CC[C@]5(C)C4CC[C@]3(C)[C@H]1[C@@H]2C` (some centres unmarked) [A20], the MIC in vitro in test [1] is 4.8 µg/mL (≈ 5.52 µM). Further, the “promoting C. elegans survival compared with amphotericin B” value in the test on C. albicans (dose response, FIG. 2A) is on record as “as effective as amphotericin B”. In the test with C. albicans, this compound yielded an EC50 in vivo of 4.8 µg/mL (≈ 5.52 µM).

Consider `C/C=C(/C)C(=O)O[C@H]1CC(C)(C)C[C@H]2C3=CCC4[C@@]5(C)CC[C@H](O[C@@H]6O[C@H](C(=O)O)[C@@H](O[C@@H]7O[C@H](CO)[C@H](O)[C@H](O)[C@H]7O[C@@H]7O[C@H](CO)[C@@H](O)[C@H](O)[C@H]7O)[C@H](O)[C@H]6OC6O[C@@H](C)[C@H](O)[C@@H](O)[C@H]6O)C(C)(C)C5CC[C@@]4(C)[C@]3(C)[C@@H](OC(C)=O)[C@@H](O)[C@@]12COC(C)=O` (some centres unmarked) [A25], for which, in test [1], the MIC in vitro is 28.7 µg/mL (≈ 22 µM) and the “in vitro growth of C. albicans” value was “completely inhibited”. Besides, the maximum nematode survival in the test on C. albicans (dose response) was 93%. This compound also registered an EC50 in vivo in the test on C. albicans of 28.7 µg/mL (≈ 22 µM).

For `CC[C@H](C)C[C@H](C)CCCCCCCCC(=O)N[C@H]1C[C@@H](O)[C@@H](NCCN)NC(=O)[C@@H]2[C@@H](O)CCN2C(=O)[C@H]([C@H](O)CCN)NC(=O)[C@H]([C@H](O)[C@@H](O)c2ccc(O)cc2)NC(=O)[C@@H]2C[C@@H](O)CN2C(=O)[C@H]([C@@H](C)O)NC1=O` [Caspofungin], the MIC in the test with C. albicans strains (C. albicans DAY185) was 2 µg/mL (≈ 1.83 µM); against C. albicans strains (echinocandin-resistant strain A15), 8 µg/mL (≈ 7.32 µM); in the test with C. albicans strains (fluconazole-resistant strain 95-120) it was 1 µg/mL (≈ 0.915 µM); in the test on C. albicans strains (fluconazole-resistant strain 98-145) it was 1 µg/mL (≈ 0.915 µM).

For orientation: MIC means the lowest concentration found to suppress growth. Low readings indicate a more susceptible organism, high ones a less susceptible organism.
